PubChem BioAssay AID256 (DTP/NCI, 2004)
Where “and” joins values, the source holds several entries; their conditions need not be identical. Equal entries are not always repeated. Inconclusive results and toxic doses are left out. Rule for the calls: active = survival T/C of 150% or more; inactive = T/C below 125% in these data.

Test system: CD2F1 mice, L1210 leukemia ip, survival T/C
Assay: NCI In Vivo Anticancer Drug Screen. Data for tumor model L1210 Leukemia (intraperitoneal) in CD2F1 (CDF1) mice
Conditions: higher = longer survival
Procedure, shortened: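 Implant tumor; dose compound or vehicle; measure endpoint in both groups; report treated divided by control.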

[1] = endpoint: mean survival time, dose: 100.0 mg/kg/injection, schedule: Q01DX001 (ip), vehicle: saline with Tween-80
[2] = endpoint: mean survival time, dose: 100.0 mg/kg/injection, schedule: Q04DX003 (ip), vehicle: saline with Tween-80
[3] = endpoint: mean survival time, dose: 200.0 mg/kg/injection, schedule: Q01DX001 (ip), vehicle: saline with Tween-80
[4] = endpoint: mean survival time, dose: 200.0 mg/kg/injection, schedule: Q04DX003 (ip), vehicle: saline with Tween-80
[5] = endpoint: mean survival time, dose: 400.0 mg/kg/injection, schedule: Q01DX001 (ip), vehicle: saline with Tween-80
[6] = endpoint: mean survival time, dose: 400.0 mg/kg/injection, schedule: Q04DX003 (ip), vehicle: saline with Tween-80
[7] = endpoint: mean survival time, dose: 50.0 mg/kg/injection, schedule: Q01DX009 (ip), vehicle: saline with Tween-80

Measured: T/C

CC1CCN(N=Nc2ccccc2-c2nc(N)c3ccccc3n2)CC1
inactive: endpoint: mean survival time, dose: 100.0 mg/kg/injection, schedule: Q04DX002 (ip), vehicle: Klucel (hydroxypropylcellulose) (HPC) 98 % of control | endpoint: mean survival time, dose: 200.0 mg/kg/injection, schedule: Q04DX002 (ip), vehicle: Klucel (hydroxypropylcellulose) (HPC) 109 % of control | endpoint: mean survival time, dose: 400.0 mg/kg/injection, schedule: Q04DX002 (ip), vehicle: Klucel (hydroxypropylcellulose) (HPC) 95 % of control

C[C@]12CCC(=O)C=C1CC[C@H]1[C@@H]3CC[C@](O)(C(=O)CF)[C@@]3(C)C[C@H](O)[C@@]12F
inactive: endpoint: mean survival time, dose: 50.0 mg/kg/injection, schedule: Q01DX001 (sc), vehicle: saline sonified 103 % of control | endpoint: mean survival time, dose: 50.0 mg/kg/injection, schedule: Q04DX003 (sc), vehicle: Klucel (hydroxypropylcellulose) (HPC) 104 % of control | endpoint: mean survival time, dose: 100.0 mg/kg/injection, schedule: Q01DX001 (sc), vehicle: saline sonified 101 % of control | endpoint: mean survival time, dose: 100.0 mg/kg/injection, schedule: Q04DX003 (sc), vehicle: Klucel (hydroxypropylcellulose) (HPC) 102 % of control | endpoint: mean survival time, dose: 200.0 mg/kg/injection, schedule: Q01DX001 (sc), vehicle: saline sonified 103 % of control | endpoint: mean survival time, dose: 200.0 mg/kg/injection, schedule: Q04DX003 (sc), vehicle: Klucel (hydroxypropylcellulose) (HPC) 104 % of control

O=c1[nH]c(=S)c(SCc2ccccc2)nn1C1OC(CO)C(O)C1O (stereo not given)
inactive: endpoint: mean survival time, dose: 12.5 mg/kg/injection, schedule: Q01DX005 (ip), vehicle: distilled water + Tween-80 95 % of control | endpoint: mean survival time, dose: 25.0 mg/kg/injection, schedule: Q01DX005 (ip), vehicle: distilled water + Tween-80 97 % of control | endpoint: mean survival time, dose: 50.0 mg/kg/injection, schedule: Q01DX005 (ip), vehicle: distilled water + Tween-80 100 % of control | endpoint: mean survival time, dose: 100.0 mg/kg/injection, schedule: Q01DX005 (ip), vehicle: distilled water + Tween-80 95 % of control | endpoint: mean survival time, dose: 200.0 mg/kg/injection, schedule: Q01DX005 (ip), vehicle: distilled water + Tween-80 94 % of control

OCC(O)C(O)C(O)C(O)CO (stereo not given) (tested in a mixture with another compound)
inactive: endpoint: mean survival time, dose: 37.5 mg/kg/injection, schedule: Q01DX001 (ip), vehicle: saline 94 % of control | endpoint: mean survival time, dose: 75.0 mg/kg/injection, schedule: Q01DX001 (ip), vehicle: saline 96 % of control | [1] 88 % of control and 104 % of control | [2] 93 % of control and 90 % of control | endpoint: mean survival time, dose: 150.0 mg/kg/injection, schedule: Q01DX001 (ip), vehicle: saline 95 % of control | [3] 88 % of control and 98 % of control | [4] 95 % of control and 90 % of control | [5] 92 % of control and 93 % of control | [6] 97 % of control and 92 % of control

O=CNc1ccc(C(=O)O)cc1
inactive: [2] 94 % of control | [4] 94 % of control | [6] 100 % of control

CCCCN(CCCC)C(=O)Nc1ccccc1
inactive: endpoint: mean survival time, dose: 100.0 mg/kg/injection, schedule: Q01DX001 (ip), vehicle: saline 100 % of control | endpoint: mean survival time, dose: 200.0 mg/kg/injection, schedule: Q01DX001 (ip), vehicle: saline 100 % of control | endpoint: mean survival time, dose: 400.0 mg/kg/injection, schedule: Q01DX001 (ip), vehicle: saline 98 % of control

O=C(O)CCC(=O)c1ccc(Cl)cc1
inactive: endpoint: mean survival time, dose: 3.13 mg/kg/injection, schedule: Q04DX002 (ip), vehicle: saline with Tween-80 112 % of control | endpoint: mean survival time, dose: 6.25 mg/kg/injection, schedule: Q04DX002 (ip), vehicle: saline with Tween-80 97 % of control | endpoint: mean survival time, dose: 12.5 mg/kg/injection, schedule: Q04DX002 (ip), vehicle: saline with Tween-80 93 % of control | endpoint: mean survival time, dose: 25.0 mg/kg/injection, schedule: Q04DX002 (ip), vehicle: saline with Tween-80 97 % of control | endpoint: median survival time, dose: 200.0 mg/kg/injection, schedule: Q04DX002 (ip), vehicle: saline with Tween-80 94 % of control

N#CC(C#N)=C1CCNc2ccccc21
inactive: endpoint: mean survival time, dose: 100.0 mg/kg/injection, schedule: Q01DX009 (ip), vehicle: saline with Tween-80 96 % of control | [2] 101 % of control | endpoint: mean survival time, dose: 200.0 mg/kg/injection, schedule: Q01DX009 (ip), vehicle: saline with Tween-80 94 % of control | [4] 103 % of control | endpoint: mean survival time, dose: 400.0 mg/kg/injection, schedule: Q01DX009 (ip), vehicle: saline with Tween-80 90 % of control | [6] 97 % of control

CCOS(=O)(=O)c1ccc(N)c([N+](=O)[O-])c1
inactive: endpoint: mean survival time, dose: 100.0 mg/kg/injection, schedule: Q01DX001 (ip), vehicle: Klucel (hydroxypropylcellulose) (HPC) 100 % of control | endpoint: mean survival time, dose: 100.0 mg/kg/injection, schedule: Q01DX009 (ip), vehicle: Klucel (hydroxypropylcellulose) (HPC) 100 % of control | endpoint: mean survival time, dose: 200.0 mg/kg/injection, schedule: Q01DX001 (ip), vehicle: Klucel (hydroxypropylcellulose) (HPC) 111 % of control | endpoint: mean survival time, dose: 200.0 mg/kg/injection, schedule: Q01DX009 (ip), vehicle: Klucel (hydroxypropylcellulose) (HPC) 100 % of control | endpoint: mean survival time, dose: 400.0 mg/kg/injection, schedule: Q01DX001 (ip), vehicle: Klucel (hydroxypropylcellulose) (HPC) 100 % of control

Cc1c2ccccc2c(CSCC(N)C(=O)O)c2ccccc12 (stereo not given)
inactive: [2] 89 % of control | [4] 107 % of control | [6] 98 % of control

CCOC(=O)N(N=O)c1ccc2c(c1)Cc1cc([N+](=O)[O-])ccc1-2
inactive: endpoint: mean survival time, dose: 100.0 mg/kg/injection, schedule: Q01DX001 (ip), vehicle: carboxymethylcellulose (CMC) 105 % of control | endpoint: mean survival time, dose: 200.0 mg/kg/injection, schedule: Q01DX001 (ip), vehicle: carboxymethylcellulose (CMC) 105 % of control | endpoint: mean survival time, dose: 400.0 mg/kg/injection, schedule: Q01DX001 (ip), vehicle: carboxymethylcellulose (CMC) 97 % of control

CC(=O)Oc1ccc(C2NNC3(O)C(=O)N(C4CCCCC4)CC23)cc1 (stereo not given)
inactive: [2] 90 % of control | [4] 94 % of control | [6] 98 % of control

NC(=O)c1c(Br)n(C2OC(CO)C(O)C2O)c2ncnc(N)c12 (stereo not given)
inactive: [7] 105 % of control

COc1cc(Cl)ccc1NC(=O)OCCOc1ccc(Br)cc1
inactive: endpoint: mean survival time, dose: 12.5 mg/kg/injection, schedule: Q01DX009 (ip), vehicle: saline with Tween-80 91 % of control | endpoint: mean survival time, dose: 25.0 mg/kg/injection, schedule: Q01DX009 (ip), vehicle: saline with Tween-80 87 % of control | [7] 119 % of control and 91 % of control

O=C(Nc1cccc(O)c1)C(Cl)=C(Cl)Cl
inactive: endpoint: median survival time, dose: 1.12 mg/kg/injection, schedule: Q01DX005 (ip), vehicle: DMSO 100 % of control | endpoint: median survival time, dose: 1.19 mg/kg/injection, schedule: Q01DX005 (ip), vehicle: DMSO 101 % of control | endpoint: median survival time, dose: 1.87 mg/kg/injection, schedule: Q01DX005 (ip), vehicle: DMSO 100 % of control and 102 % of control | endpoint: median survival time, dose: 3.12 mg/kg/injection, schedule: Q01DX005 (ip), vehicle: DMSO 113 % of control and 98 % of control | endpoint: median survival time, dose: 5.19 mg/kg/injection, schedule: Q01DX005 (ip), vehicle: DMSO 104 % of control | endpoint: median survival time, dose: 5.2 mg/kg/injection, schedule: Q01DX005 (ip), vehicle: DMSO 108 % of control | endpoint: median survival time, dose: 6.25 mg/kg/injection, schedule: Q01DX005 (ip), vehicle: other 120 % of control | endpoint: median survival time, dose: 8.66 mg/kg/injection, schedule: Q01DX005 (ip), vehicle: DMSO 102 % of control | endpoint: median survival time, dose: 8.67 mg/kg/injection, schedule: Q01DX005 (ip), vehicle: DMSO 114 % of control | endpoint: median survival time, dose: 12.5 mg/kg/injection, schedule: Q01DX005 (ip), vehicle: other 118 % of control | endpoint: median survival time, dose: 25.0 mg/kg/injection, schedule: Q01DX005 (ip), vehicle: other 93 % of control

C1C[N-]CC[N-]1.[Cl][Pt+2][Cl]
inactive: endpoint: mean survival time, dose: 7.8 mg/kg/injection, schedule: Q04DX003 (ip), vehicle: saline with Tween-80 97 % of control | endpoint: mean survival time, dose: 62.5 mg/kg/injection, schedule: Q04DX003 (ip), vehicle: saline with Tween-80 90 % of control | endpoint: mean survival time, dose: 125.0 mg/kg/injection, schedule: Q04DX003 (ip), vehicle: saline with Tween-80 94 % of control

CN(C)/C=N/NC(=O)c1ccccc1O
inactive: [2] 98 % of control | [4] 100 % of control | [6] 100 % of control

CCC1(C)C=CCC(C)(C)S1 (stereo not given)
inactive: endpoint: mean survival time, dose: 100.0 mg/kg/injection, schedule: Q04DX002 (ip), vehicle: saline with Tween-80 102 % of control | endpoint: mean survival time, dose: 200.0 mg/kg/injection, schedule: Q04DX002 (ip), vehicle: saline with Tween-80 91 % of control

COc1ccc(CCF)cc1
inactive: [1] 110 % of control | [3] 100 % of control | [5] 114 % of control

COc1ccc(C(=O)c2ncccc2C)cc1OC
inactive: endpoint: mean survival time, dose: 12.5 mg/kg/injection, schedule: Q01DX009 (ip), vehicle: water 94 % of control | endpoint: mean survival time, dose: 25.0 mg/kg/injection, schedule: Q01DX009 (ip), vehicle: water 95 % of control | endpoint: mean survival time, dose: 50.0 mg/kg/injection, schedule: Q01DX009 (ip), vehicle: water 94 % of control | endpoint: mean survival time, dose: 100.0 mg/kg/injection, schedule: Q01DX009 (ip), vehicle: water 94 % of control | endpoint: mean survival time, dose: 200.0 mg/kg/injection, schedule: Q01DX009 (ip), vehicle: water 88 % of control
